From patent US8524860B2, “Peptides with capacity to bind to scurfin and applications” (Proyecto de Biomedicina CIMA, S.L., priority 2007, dated 2013)
No end group written: not given here.

How the values were obtained:
CT26 colon cancer line = experiment: CT26 colon cancer tumor model, antitumor vaccination with peptide AH1; type: in vivo, BALB/c mice; conditions: for protection from tumor: n=11
From the text: The tumor model used for this assay has been a model based on the CT26 colon cancer line, described in a previous work of the laboratory of the inventors (Casares et al, 2001. Eur J Immunol 31:1780-9; Casares et al., 2003. J Immunol 171:5931-9), since the inventors had previously shown that, in this model, Treg lymphocytes have an immunosuppressive effect favoring tumor growth (Casares et al., 2003, mentioned above).
The synthetic peptide (SEQ ID NO: 8) was used as a vaccine antigen, which peptide contains a cytotoxic T determinant for the CT26 line (Huang, A. Y. et al, Proc Natl Acad Sci USA, 1996. 93:9730-9735) and the immunization of which delays the tumor growth to a certain extent, without eliminating it due to the presence of Treg lymphocytes (Casares et al., 2003, mentioned above).
Briefly, groups of 6 six-week old BALB/c mice (Charles River) were immunized with peptide AH1 (SEQ ID NO: 8) as described in Casares et al., 2001, mentioned above, in the presence or absence of peptide P60 (SEQ ID NO: 1). Ten days after the immunization, the mice were subcutaneously injected with 5×10^5 CT26 cells, and the tumor evolution was measured.

scurfin = molecular target: T1, scurfin (Homo sapiens, UniProt Q9BZS1); experiment: Surface plasmon resonance (SPR) analysis of peptide binding to immobilized scurfin; conditions: peptide 10 μM, scurfin immobilized on CM5 chip, compared with irrelevant control peptide (SEQ ID NO: 6)
T1 construct: GST (glutathione-S-transferase); made in house; host or cells: Escherichia coli BL21
T1 sequence (Q9BZS1 1-431): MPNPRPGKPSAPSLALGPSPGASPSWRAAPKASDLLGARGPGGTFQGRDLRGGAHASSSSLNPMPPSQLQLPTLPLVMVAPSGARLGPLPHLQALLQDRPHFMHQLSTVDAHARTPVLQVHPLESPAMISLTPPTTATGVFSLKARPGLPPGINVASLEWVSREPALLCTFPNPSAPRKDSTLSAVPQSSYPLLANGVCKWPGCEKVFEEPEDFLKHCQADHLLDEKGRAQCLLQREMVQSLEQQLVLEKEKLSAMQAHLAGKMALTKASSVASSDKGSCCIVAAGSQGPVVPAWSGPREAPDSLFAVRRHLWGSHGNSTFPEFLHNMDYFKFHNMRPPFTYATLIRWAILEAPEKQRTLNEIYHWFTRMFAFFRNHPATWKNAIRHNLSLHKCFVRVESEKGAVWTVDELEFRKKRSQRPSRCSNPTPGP
From the text: The capacity of peptide P60 (SEQ ID NO: 1) to bind to scurfin was verified by means of the biomolecular interaction surface plasmon resonance (SPR) using the Biosensor BIAcore X (BIAcore, AB, Uppsala, Sweden). Scurfin, produced in E. coli and purified by affinity using GSTrap columns (Amersham, Pharmacia), was covalently immobilized on the surface of the flow cell 2 (FC2) of a CM5 chip (Sensor Chip CM Ref 116Br-1000-14, BIAcore, General Electrics), as described in De Crescenzo et al. (JBC 2001, Vol 276; 29632-29643). Flow cell 1 (FC1), on the surface of which scurfin is not immobilized, was used as a reference reflow cell. The solutions of each peptide (10 μM) were injected three times in a 10 mM Hepes buffer, 150 mM NaCl, pH 7.4 at a flow of 30 μl/min. The binding curves were processed by means of subtracting the response in FC1 from that obtained in FC2. The response in equilibrium was compared between peptide P60 (SEQ ID NO: 1) and an irrelevant control peptide of the same size (length), specifically, the peptide the amino acid sequence of which is shown in SEQ ID NO: 6, corresponding to amino acids 123-137 of the human CD81 receptor. Each response was multiplied by a mass correction factor: MW(P60)/MW(P), wherein MW(P60) is the molecular weight of peptide P60 (SEQ ID NO: 1) and MW(P) is that of the control peptide.
For the purpose of evaluating the importance of the amino acids placed at the amino-terminal and carboxyl-terminal ends of peptide P60 (SEQ ID NO: 1), truncated forms of said peptide P60 (SEQ ID NO: 1) were chemically synthesized as has been mentioned above, and the capacity of said truncated forms to bind to scurfin was assayed by means of SPR, according to the protocol previously described in section 1.3.
Likewise, the capacity of said peptides (SEQ ID NO: 2, SEQ ID NO: 3 and SEQ ID NO: 4) to bind to scurfin was assayed by means of SPR in the previously mentioned conditions.

[1] = test system: Karpas 299 human cell line; experiment: Mixed lymphocyte reaction (MLR) of PBMCs from 2 donors with Karpas 299 cells, IFN-γ ELISA; type: cell-based
Procedure: After verifying and confirming its profile, in vitro assays were carried out using the Karpas 299 human cell line (ACC-31, DSMZ, Germany), derived from a human lymphoma with a regulatory T cell [Treg lymphocytes] profile (Wolke et al Int J Mol. Med. 2006 February; 17(2):275-8), the need to isolate CD4+CD25+ cells is thus prevented.
To evaluate the effect of peptide P60 (SEQ ID NO: 1) on the immunosuppressive activity of the Karpas 299 cell line, a “mixed lymphocyte reaction” (MLR) assay was carried out using peripheral blood mononuclear cells (PBMCs) from 2 donors in the presence or absence of the Karpas 299 cell line. This assay (MLR) is based on co-culturing lymphocytes of a different origin, with different histocompatibilities, which will recognize one another as foreign. This reaction makes lymphocytes proliferate, secreting cytokines. For this assay, 100,000 cells of each donor (positive MLR control) were cultured in a 96-well plate, alone or in the presence of 10,000 cells of the Karpas 299 cell line.
After 48 hours, the supernatants were extracted to measure interferon-gamma (IFN-γ) by means of a commercial ELISA (Ref 555138, Pharmingen, San Diego, Calif., United States). […] In this assay of inhibition of the MLR due to the presence of the Karpas 299 cell line, the capacity of peptide P60 (SEQ ID NO: 1) to restore the production of IFN-γ due to the MLR was analyzed.

human Treg lymphocytes [2] = experiment: MLR of PBMCs from 2 donors with human Treg lymphocytes, tritiated thymidine incorporation; type: cell-based; conditions: 100 μM, 3 days of culture
Procedure: To carry out the assay based on a mixed lymphocyte reaction (MLR), such as that shown in Example 2, peripheral blood mononuclear cells (PBMCs) from 2 donors were mixed together with CD4+CD25+ Treg cells (Treg lymphocytes) purified from one of them, by means of using a commercial kit (Ref 130091072, Miltenyi Biotec, Bergisch Gladbach, Germany) following the instructions of the manufacturer. After the purification, the cells were analyzed by flow cytometry, a purity of approximately 90% being obtained in all the assays. This MLR assay was carried out incubating 10^5 PBMC cells from each donor and 2×10^4 Treg lymphocytes in the presence or absence of peptide P60 (SEQ ID NO: 1), for the purpose of assaying its capacity to block the inhibitory effect of human Treg lymphocytes. After 3 days of culture, 0.5 μCi/well of tritiated thymidine (Amersham, Pharmacia) and after 16 hours, the plates were harvested using a harvester (Filtermate 96 harvester; Packard Instrument, Meriden, Conn.) and the radioactivity incorporated to the cell DNA was counted (as a measurement of the cell proliferation) by means of a scintillation counter (Topcount; Packard Instrument).

human Treg lymphocytes [3] = experiment: IFN-γ production by human CD4 effector T lymphocytes stimulated with anti-CD3/CD28 microspheres with human Treg lymphocytes; type: cell-based; conditions: 100 μM, anti-CD3/CD28 stimulus, 48 hours, ELISA
Procedure: This assay is based on the measurement of the production of IFN-γ in a culture of 10^5 human CD4 effector T lymphocytes cultured with microspheres containing anti-CD3 and anti-CD28 antibodies adhered to their surface (Dynabeads® CD3/CD28; Ref 111.31, Dynal), in the presence or absence of 2×10^4 human Treg lymphocytes (purified as indicated above). This assay was carried out in the presence or absence of peptide P60 (SEQ ID NO: 1) to assess its inhibitory effect of Treg lymphocytes. After 48 hours of culture, the presence of IFN-γ in the culture supernatants was measured by means of a commercial ELISA (Ref 555138, Pharmingen).

murine Treg lymphocytes [4] = experiment: Activation of BALB/c mouse splenocytes with anti-CD3 antibodies with murine Treg lymphocytes, IFN-γ; type: cell-based; conditions: 100 μM
Procedure: Firstly, assays of activation of BALB/c mouse splenocytes (Charles River) in the presence of anti-CD3 antibodies (Ref 553057, BD Biosciences) were carried out.

murine Treg lymphocytes [5] = experiment: Murine MLR (BALB/c effector lymphocytes with C57BL/6 dendritic cells) with BALB/c Treg lymphocytes, tritiated thymidine incorporation; type: cell-based, mouse; conditions: 100 μM
Procedure: Secondly, mixed lymphocyte reaction (MLR) assays were carried out. The effector lymphocytes isolated from BALB/c mice (10^5 cells/well) were co-cultured with purified dendritic cells from C57BL/6 mice (Charles River), in the presence or absence of BALB/c Treg lymphocytes and in the presence or absence of peptide P60 (SEQ ID NO: 1) (100 μM). The measurement of the cell proliferation was carreid out by means of a conventional tritiated thymidine incorporation assay as has been previously described.

murine Treg lymphocytes [6] = experiment: Co-culture of OT-1 transgenic mouse effector lymphocytes with dendritic cells, SIINFEKL antigen and Treg lymphocytes, IFN-γ ELISA; type: cell-based; conditions: 100 μM, SIINFEKL 10 μg/ml, OT-1 effector lymphocytes
Procedure: Thirdly, the effect of peptide P60 (SEQ ID NO: 1) was measured in an assay based on co-culturing splenocytes from OT-1 transgenic mice (the T lymphocytes of which have a specific T cell receptor for the peptide SIINFEKL (SEQ ID NO: 7) of ovalbumin, which were kindly provided by Dr Melero, CIMA Pamplona) with Treg lymphocytes in the presence of antigen (SEQ ID NO: 7) and in the presence or absence of Treg lymphocytes. […] The effector lymphocytes isolated from OT-1 transgenic mice (10^5 cells/well) were co-cultured with dendritic cells from C57BL/6 mice and the peptide SIINFEKL (SEQ ID NO: 7) (10 μg/ml), in the presence or absence of 2×10^4 BALB/cregulatory T cells and in the presence or absence of peptide P60 (SEQ ID NO: 1) (100 μM).

[7] = test system: inhibition of the activation of transcription factor NF-κB by scurfin; experiment: NF-κB luciferase reporter in 293 cells transfected with pcDNA-Foxp3; type: cell-based; conditions: 100 μM, 24 hours
From the text: It has been described that the presence of scurfin can inhibit the activation of the transcription factor NF-kB in 293 cells (Betelli et al, Proc Natl Acad Sci USA. 2005 102:5138-43). Based on this work, the effect of the addition of peptide P60 (SEQ ID NO: 1) to a culture of 293 cells transfected with a plasmid expressing the foxp3 gene, kindly provided by Dr Oukka and previously described (Betelli et al, Proc Natl Acad Sci USA. 2005 102:5138-43) and to a culture of 293 cells transfected with a control plasmid together with a plasmid expressing luciferase under a promoter inducible by NF-κB (Ref 631904, pNF-kB-Luc, Clontech) has been studied. The 293 cells were transfected by means of using lipofectamine with plasmid pNF-kB-Luc expressing luciferase under a promotor inducible by transcription factor NF-kB, in the presence or absence of plasmid pcDNA, pcDNA-Foxp3 and peptide P60 (SEQ ID NO: 1) (100 μM). After 24 hours of culture, the cells were harvested and the luciferase activity in the cell extracts was measured by means of using a suitable kit (Promega, Maddison, USA) and the luminometer (Orion Microplate luminometer, Berthold detection systems, Germany).

## AH1: synthetic peptide used as vaccine antigen, contains a cytotoxic T determinant for the CT26 line (SPSYVYHQF) [reference compound]
CT26 colon cancer line; mice immunized with AH1 alone
  protection from tumor: 0%

## RDFQSFRKMWPFF [T(1-13), truncated form of P60, amino acids 1-13 of P60]
scurfin
  capacity to bind to scurfin (SPR signal): does not destroy the capacity of the peptide to bind to scurfin

## RDFQSFRKMWPFFA [T(1-14), truncated form of P60, amino acids 1-14 of P60]
scurfin
  capacity to bind to scurfin (SPR signal): does not destroy the capacity of the peptide to bind to scurfin

## RDFQSFRKMWPFFAM [P60]
scurfin
  capacity to bind to scurfin (SPR signal): positive signal
[1]; 100 μM, 48 hours, ELISA
  restoration of the production of IFN-γ due to the MLR inhibited by Karpas 299 cells: capable of partly recovering the production of IFN-γ
[1]; several in vitro assays (Example 2)
  inhibitory activity on the immunosuppressive action of Treg cells among the 25 peptides selected: highest inhibitory activity
Human Treg lymphocytes [2]
  restoration of the MLR (cell proliferation) inhibited by human Treg lymphocytes: capable of partly restoring the MLR
Human Treg lymphocytes [3]
  restoration of the production of IFN-γ inhibited by human Treg lymphocytes: partly restoring the production of IFN-γ
Murine Treg lymphocytes [4]
  inhibition of the immunosuppressive effect of Treg lymphocytes on production of IFN-γ in response to anti-CD3: capable of inhibiting the immunosuppressive effect of Treg lymphocytes on the production of IFN-γ
Murine Treg lymphocytes [5]
  inhibition of the immunosuppressive effect of Treg lymphocytes on proliferation of effector cells in response to an MLR: capable of inhibiting the immunosuppressive effect of Treg lymphocytes on the proliferation of effector cells
Murine Treg lymphocytes [6]
  inhibition of the immunosuppressive effect of Treg lymphocytes on production of IFN-γ by antigen-specific effector cells: capable of inhibiting the immunosuppressive effect of Treg lymphocytes on the production of IFN-γ
[7]
  expression of luciferase (NF-κB reporter) inhibited by scurfin: restores the expression of luciferase
CT26 colon cancer line; mice immunized with peptide AH1 and treated with P60 50 nm/mouse i.p. days 0, 2, 4, 6, 8, 10
  protection from tumor: 82%
CT26 colon cancer line; of the 11 mice immunized with peptide AH1 and treated with P60
  mice that developed a palpable tumor: 2
CT26 colon cancer line; peptide P60 alone, non-immunized mice
  protection from tumor: 10%

## T(2-15): truncated form of P60, amino acids 2-15 of P60 (DFQSFRKMWPFFAM)
scurfin
  capacity to bind to scurfin (SPR signal): inhibits the capacity of the peptide to bind to scurfin
